The record followed here is patent US12622906B2, “Treatment and prognosis of pancreatic cancer” (Cambridge Enterprise Limited, priority 2019, dated 2026).

In one data set the test system is PDAC cells. Nature of the data set: 3D in vitro assay of invasion, PDAC cells co-cultured with BMDM (IncuCyte Zoom, NeuroTrack). It is filed as cell-based, murine. Particulars: 3D co-culture of PDAC cells with BMDM; pre-treatment 24 hours or treatment at time of co-culture.
Data set [1] relates to fibroblasts and macrophages. Nature of the data set: Viability of non-cancerous cells treated with CCR1 antagonist. It is filed as cell-based. The conditions noted are these: compared with vehicle control.
Another data set concerns CCR1 expression. Nature of the data set: CCR1 expression in PDAC cells after prolonged co-culture with BMDM (qRT-PCR, flow cytometry). Format: cell-based, murine. Particulars: PDAC cells co-cultured with BMDM; by qRT-PCR and flow cytometry. (In general: Quantitative PCR measures a nucleic acid by following its amplification.)

Protocol for CCR1 expression: Culture conditions for PDAC and BMDM cell lines used in this study are described above. For co-cultures, mCherry-labelled PDAC cells were mixed 1:1 with ZsGreen-labelled macrophages, typically primary BMDM unless otherwise noted. Co-cultures were seeded and kept as subconfluent cultures for 48-96 hours in either 2D or 3D conditions.
Total RNA was isolated and purified from cells using Qiazol reagent and miRNeasy mini kit (Qiagen). cDNA was synthesized using the High Capacity RNA-to-cDNA kit (ABI) according to manufacturer's instructions. qRT-PCR was performed using Power SYBR Green PCR Master Mix (ABI) on the TaqMan 7900 (ABI). Relative expression levels were defined using the ΔΔCt method and normalizing to 18S rRNA and/or GAPDH.
Pre-treatment: PDAC cells and BMDM were pre-treated with CCR1 antagonists 24 hours prior to the start of the experiment, harvested and then seeded according to the co-culture method previously described for the duration of the experiment.
Treatment at time of co-culture: PDAC cells and BMDM were seeded according to the co-culture method as previously described and CCR1 antagonists were treated at the time of seeding and allowed to incubate for the duration of the experiment. […]

Consider `C[C@@H]1CN(Cc2ccc(F)cc2)CCN1C(=O)COc1ccc(Cl)cc1NC(N)=O` [BX-471, (2R)-1-[[2-[(Aminocarbonyl)amino]-4-chlorophenoxy]acetyl]-4-[(4-fluorophenyl)methyl]-2-methylpiperazine], for which the “macrophage-mediated pro-invasive phenotype of PDAC cells” value in the data set with PDAC cells is reported as “striking ability to rein in the effect of macrophages to confer functional pro-invasive abilities to PDAC cells”. Besides, the “viability of fibroblasts and macrophages” value in data set [1] is reported as “just as viable as cell treated with vehicle control”.

Consider `CC[N@+]1(C/C2=C/CCCCCC2)CC[C@@H](NC(=O)C2c3cc(Cl)ccc3Oc3ccc(Cl)cc32)CC1.[I-]` [J113863, 1,4-cis-1-(1-cycloocten-1-ylmethyl)-4-[[(2,7-dichloro-9H-xanthen-9-yl)carbonyl]amino]-1-ethylpiperidinium iodide], for which the “macrophage-mediated pro-invasive phenotype of PDAC cells” value with PDAC cells was “striking ability to rein in the effect of macrophages to confer functional pro-invasive abilities to PDAC cells”. Moreover, the “induction of CCR1 expression due to prolonged co-culture” value in the data set on CCR1 expression was “blunting the induction of CCR1 expression”.
